From patent publication US9969726B2, “Metabotropic glutamate receptor negative allosteric modulators (NAMS) and uses thereof” (Sanford-Burnham Medical Research Institute, priority 2014, dated 2018) come the findings set out here.

One assay addresses rat mGlu2 receptor (Rattus norvegicus (Rat), UniProt P31421). Put plainly: mGlu2 in vitro GIRK thallium flux assay. Type of assay: cell-based. Conditions: NAM, EC80 glutamate, HEK-293 GIRK cells. As for the experimental part: (§1) All cell culture reagents were purchased from Invitrogen Corp. (Carlsbad, Calif.) unless otherwise noted. Compound activity at the group II (mGlu2 and mGlu3) mGlus was assessed using thallium flux through GIRK channels. Briefly, cells were plated into 384-well, black-walled, clear-bottomed poly-D-lysine-coated plates at a density of 15,000 cells/20 μL/well in DMEM containing 10% dialyzed FBS, 20 mM HEPES, and 100 units/mL penicillin/streptomycin (assay media). Plated cells were incubated overnight at 37° C. in the presence of 5% CO2. […] Cells were incubated for 1 h at room temperature, and the dye exchanged to assay buffer using an ELX405, leaving 20 μL/well. Test compounds were diluted to 2 times their final desired concentration in assay buffer (0.3% DMSO final concentration). […] Cell plates and compound plates were loaded onto a kinetic imaging plate reader (FDSS 6000 or 7000; Hamamatsu Corporation, Bridgewater, N.J.). Appropriate baseline readings were taken (10 images at 1 Hz; excitation, 470±20 nm; emission, 540±30 nm) and test compounds were added in a 20 μL volume and incubated for either 2.5 min or 60 min as indicated before the addition of 10 μL of thallium buffer with or without agonist. After the addition of agonist, data were collected for approximately an additional 2.5 min. Data were analyzed using Excel (Microsoft Corp, Redmond, Wash.). The slope of the fluorescence increase beginning 5 s after thallium/agonist addition and ending 15 s after thallium/agonist addition was calculated, corrected to vehicle and maximal agonist control slope values, and plotted in using either XLfit (ID Business Solutions Ltd) or Prism software (GraphPad Software, San Diego, Calif.) to generate concentration-response curves. Potencies were calculated from fits using a four-point parameter logistic equation. For concentration-response curve experiments, compounds were serially diluted 1:3 into 10 point concentration response curves and were transferred to daughter plates using an Echo acoustic plate reformatter (Labcyte, Sunnyvale, Calif.). Test compounds were applied and followed by EC80 concentrations of glutamate.

Another assay concerns the target rat mGlu3 receptor (Rattus norvegicus (Rat), UniProt P31422). Put plainly: mGlu3 in vitro GIRK thallium flux assay. The class given is cell-based. Conditions: NAM; 2.5 min compound incubation; EC80 glutamate; HEK-293 GIRK cells. The method, then:
as §1

Setting [1] is: 2.5 min compound incubation, read-out: mGlu2 EC50 (μM) (2.5 min).
[2] abbreviates: read-out: mGlu2 EC50 (μM) (60 min), 60 min compound incubation.
The mark [3] stands for this setting: mGlu2 EC50 (μM) (60 min), 60 min compound incubation.

SMILES strings stand for the structures. Like-named read-outs stand apart in the source and are kept apart here. Bounds are passed on as bounds.

Sequence of rat mGlu2 receptor (P31421 19-872): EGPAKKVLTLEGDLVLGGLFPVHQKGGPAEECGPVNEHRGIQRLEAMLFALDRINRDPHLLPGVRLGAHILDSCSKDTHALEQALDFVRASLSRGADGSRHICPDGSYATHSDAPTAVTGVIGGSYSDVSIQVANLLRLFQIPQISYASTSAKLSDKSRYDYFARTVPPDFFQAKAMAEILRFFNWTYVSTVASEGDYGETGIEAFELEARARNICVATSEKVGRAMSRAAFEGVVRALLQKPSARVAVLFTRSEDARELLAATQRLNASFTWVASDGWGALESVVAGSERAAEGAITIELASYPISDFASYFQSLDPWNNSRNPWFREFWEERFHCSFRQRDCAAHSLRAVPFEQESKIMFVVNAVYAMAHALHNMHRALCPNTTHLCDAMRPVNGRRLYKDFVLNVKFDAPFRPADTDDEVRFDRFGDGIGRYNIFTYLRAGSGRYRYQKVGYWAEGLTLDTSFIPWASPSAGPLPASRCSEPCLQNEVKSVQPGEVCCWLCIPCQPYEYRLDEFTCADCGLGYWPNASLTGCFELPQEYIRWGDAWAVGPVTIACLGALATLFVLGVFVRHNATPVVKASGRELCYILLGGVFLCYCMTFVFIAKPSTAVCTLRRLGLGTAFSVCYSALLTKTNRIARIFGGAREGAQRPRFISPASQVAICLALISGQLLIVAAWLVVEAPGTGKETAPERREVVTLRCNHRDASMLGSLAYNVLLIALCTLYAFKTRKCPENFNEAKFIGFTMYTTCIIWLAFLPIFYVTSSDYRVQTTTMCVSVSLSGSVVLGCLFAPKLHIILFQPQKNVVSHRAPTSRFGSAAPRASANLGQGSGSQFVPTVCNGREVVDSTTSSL
Sequence of rat mGlu3 receptor (P31422 23-879): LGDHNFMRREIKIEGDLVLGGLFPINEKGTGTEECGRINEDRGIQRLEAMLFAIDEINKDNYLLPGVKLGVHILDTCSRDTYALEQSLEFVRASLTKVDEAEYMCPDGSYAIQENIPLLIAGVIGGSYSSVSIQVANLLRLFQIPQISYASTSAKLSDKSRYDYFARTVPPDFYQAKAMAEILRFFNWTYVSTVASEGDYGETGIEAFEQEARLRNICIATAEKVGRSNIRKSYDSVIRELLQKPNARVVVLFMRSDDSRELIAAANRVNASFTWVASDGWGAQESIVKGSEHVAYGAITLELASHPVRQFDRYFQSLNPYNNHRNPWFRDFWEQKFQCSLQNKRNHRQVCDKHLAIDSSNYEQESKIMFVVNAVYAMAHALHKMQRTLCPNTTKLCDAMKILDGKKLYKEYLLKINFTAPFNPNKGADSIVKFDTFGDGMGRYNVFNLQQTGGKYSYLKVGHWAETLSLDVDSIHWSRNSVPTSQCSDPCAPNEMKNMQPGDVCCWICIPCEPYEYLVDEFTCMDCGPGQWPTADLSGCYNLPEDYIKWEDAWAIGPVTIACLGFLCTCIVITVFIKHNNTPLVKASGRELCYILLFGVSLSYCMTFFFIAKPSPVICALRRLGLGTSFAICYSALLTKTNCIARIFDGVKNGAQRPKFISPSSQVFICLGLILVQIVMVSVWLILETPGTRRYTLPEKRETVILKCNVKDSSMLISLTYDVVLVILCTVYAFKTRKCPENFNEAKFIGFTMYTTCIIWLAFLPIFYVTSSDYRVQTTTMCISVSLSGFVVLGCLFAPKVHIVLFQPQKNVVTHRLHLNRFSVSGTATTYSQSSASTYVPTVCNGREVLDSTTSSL

What is called EC50 is the concentration that produces a half-maximal response. With `N#Cc1cccc(-c2cccc(-c3csc(-c4ccccc4)n3)c2)c1` [Example 14, 3′-(2-Phenylthiazol-4-yl)biphenyl-3-carbonitrile], the EC50 was above 30 µM at rat mGlu2 receptor (setting [1]), above 10 µM on rat mGlu2 receptor (setting [2]) and above 30 µM at rat mGlu3 receptor.

`NS(=O)(=O)c1cccc(-c2cccc(-c3csc(-c4ccccc4)n3)c2)c1` [Example 2, 3′-(2-Phenylthiazol-4-yl)biphenyl-3-sulfonamide]: the EC50 on rat mGlu2 receptor (setting [1]) is above 30 µM; on rat mGlu2 receptor (setting [3]), above 10 µM; at rat mGlu3 receptor it was above 30 µM.

Consider `O=C1CC(c2ccnc(-c3ccccc3F)c2)=Nc2ccc(C(F)(F)F)cc2N1` [Example 200, 4-(2-(2-Fluorophenyl)pyridin-4-yl)-8-(trifluoromethyl)-1,3-dihydro-2H-benzo[b][1,4]diazepin-2-one], for which the values for the EC50 at rat mGlu2 receptor (setting [1]), on rat mGlu2 receptor (setting [2]) and on rat mGlu3 receptor were above 10 µM, 0.22 µM and 0.75 µM, respectively.

`Cc1cc2c(cc1C(F)(F)F)NC(=O)CC(c1cccc(C#CCO)c1)=N2` [Example 203, 4-[3-(3-Hydroxy-prop-1-ynyl)-phenyl]-7-methyl-8-trifluoromethyl-1,3-dihydro-benzo[b][1,4]diazepin-2-one]: the values for the EC50 on rat mGlu2 receptor (setting [1]), on rat mGlu2 receptor (setting [2]) and on rat mGlu3 receptor were 0.65 µM, 0.02 µM and 0.39 µM, respectively.

As for `O=C(O)c1cc(-c2cccc(-c3nc(-c4ccc(C(F)(F)F)nc4)cc(C(F)(F)F)n3)c2)cc([N+](=O)[O-])c1` [Example 75, 5-Nitro-3′-(4-(trifluoromethyl)-6-(6-(trifluoromethyl)pyridin-3-yl)pyrimidin-2-yl)biphenyl-3-carboxylic Acid], the EC50 on rat mGlu2 receptor (setting [1]) was 1.27 µM; on rat mGlu2 receptor (setting [2]), 0.5 µM; on rat mGlu3 receptor it was above 10 µM.

Consider `Cc1cc(C)cc(-c2cc(C(F)(F)F)nc(-c3cccc(-c4ccc(F)c(C(=O)O)c4)c3)n2)c1` [Example 93, 3′-(4-(3,5-Dimethylphenyl)-6-(trifluoromethyl)pyrimidin-2-yl)-4-fluorobiphenyl-3-carboxylic Acid], for which the results for the EC50 at rat mGlu2 receptor (setting [1]), on rat mGlu2 receptor (setting [2]) and at rat mGlu3 receptor were above 10 µM, 1.6 µM and above 10 µM, respectively.

Turning to `O=C(O)c1cc(-c2cccc(-c3csc(-c4ccco4)n3)c2)ccc1F` [Example 7, 4-Fluoro-3′-(2-(furan-2-yl)thiazol-4-yl)biphenyl-3-carboxylic Acid], the figures for the EC50 on rat mGlu2 receptor (setting [1]), on rat mGlu2 receptor (setting [3]) and on rat mGlu3 receptor were 2.4 µM, above 10 µM and above 10 µM, respectively.

Take `O=C(O)c1cccc(-c2cccc(-c3coc(-c4ccccc4)n3)c2)c1` [Example 47, 3′-(2-Phenyloxazol-4-yl)-[1,1′-biphenyl]-3-carboxylic Acid]: the EC50 on rat mGlu2 receptor (setting [1]) was above 10 µM; at rat mGlu2 receptor (setting [3]), above 10 µM; on rat mGlu3 receptor, above 30 µM.

As to `O=C(O)c1cccc(-c2cccc(-c3nc(-c4ccccc4)n(-c4cccc(F)c4)n3)c2)c1` [Example 56, 3′-(1-(3-Fluorophenyl)-5-phenyl-1H-1,2,4-triazol-3-yl)-[1,1′-biphenyl]-3-carboxylic Acid], the EC50 on rat mGlu2 receptor (setting [1]) is 3.22 µM; at rat mGlu2 receptor (setting [3]), above 10 µM; on rat mGlu3 receptor, above 10 µM.

`Cc1cc(-c2cccc(C3CC(=O)Nc4cc(NC(=O)OCc5ccccc5)ccc4N3)c2)cc(C)n1` (racemic) [Example 162, Benzyl (2-(3-(2,6-dimethylpyridin-4-yl)phenyl)-4-oxo-2,3,4,5-tetrahydro-1H-benzo[b][1,4]diazepin-7-yl)carbamate]: the EC50 at rat mGlu2 receptor (setting [1]) was above 10 µM; on rat mGlu2 receptor (setting [3]), 5.36 µM; on rat mGlu3 receptor, above 10 µM.

Consider `O=C(O)c1cc(-c2csc(-c3ccccc3)n2)ccc1F` [Example 27, 2-Fluoro-5-(2-phenylthiazol-4-yl)benzoic acid], for which the EC50 on rat mGlu2 receptor (setting [1]) is above 10 µM; on rat mGlu2 receptor (setting [3]), above 30 µM; at rat mGlu3 receptor, above 30 µM.

Regarding `Cc1ccccc1-c1cc(C(F)(F)F)nc(-c2cccc(-c3ccc(F)c(C(=O)O)c3)c2)n1` [Example 91, 4-Fluoro-3′-(4-o-tolyl-6-(trifluoromethyl)pyrimidin-2-yl)biphenyl-3-carboxylic acid], the EC50 is 1.52 µM at rat mGlu2 receptor (setting [1]), 0.28 µM on rat mGlu2 receptor (setting [2]) and above 10 µM at rat mGlu3 receptor.

As to `O=C(O)c1ccc(-c2cccc(-c3nc(-c4ccc(C(F)(F)F)nc4)cc(C(F)(F)F)n3)c2)cc1` [Example 71, 3′-(4-(Trifluoromethyl)-6-(6-(trifluoromethyl)pyridin-3-yl)pyrimidin-2-yl)biphenyl-4-carboxylic Acid], the EC50 on rat mGlu2 receptor (setting [1]), at rat mGlu2 receptor (setting [2]) and at rat mGlu3 receptor was above 10 µM throughout.

`O=C(O)c1cc(F)cc(-c2cccc(-c3nc(-c4ccoc4)cc(C(F)(F)F)n3)c2)c1` [Example 113, 5-Fluoro-3′-(4-(furan-3-yl)-6-(trifluoromethyl)pyrimidin-2-yl)biphenyl-3-carboxylic Acid]: the EC50 at rat mGlu2 receptor (setting [1]) was 0.4 µM; on rat mGlu2 receptor (setting [2]), 0.23 µM; at rat mGlu3 receptor it was 1.15 µM.

Regarding `O=C(O)c1cc(-c2cccc(-c3nc(-c4ccc[nH]4)cc(C(F)(F)F)n3)c2)ccc1F` [Example 106, 3′-(4-(1H-Pyrrol-2-yl)-6-(trifluoromethyl)pyrimidin-2-yl)-4-fluorobiphenyl-3-carboxylic Acid], the EC50 was found to be 1.19 µM at rat mGlu2 receptor (setting [1]), 1.42 µM on rat mGlu2 receptor (setting [2]) and 5.06 µM at rat mGlu3 receptor.

Turning to `O=C(O)c1cc(-c2cccc(-c3nc(-c4ccc(C(F)(F)F)nc4)cc(C(F)(F)F)n3)c2)ccc1Cl` [Example 70, 4-Chloro-3′-(4-(trifluoromethyl)-6-(6-(trifluoromethyl)pyridin-3-yl)pyrimidin-2-yl)biphenyl-3-carboxylic Acid], the EC50 at rat mGlu2 receptor (setting [1]) stood at 1.26 µM; on rat mGlu2 receptor (setting [2]), 0.2 µM; at rat mGlu3 receptor, 1.58 µM.

With `O=C(O)c1ccc(-c2cccc(-c3nc(-c4ccc(C(F)(F)F)nc4)cc(C(F)(F)F)n3)c2)s1` [Example 80, 5-(3-(4-(Trifluoromethyl)-6-(6-(trifluoromethyl)pyridin-3-yl)pyrimidin-2-yl)phenyl)thiophene-2-carboxylic Acid], the EC50 on rat mGlu2 receptor (setting [1]) worked out at 0.78 µM; on rat mGlu2 receptor (setting [2]), 0.13 µM; at rat mGlu3 receptor, 2.4 µM.

`O=C(O)c1cc(-c2cccc(-c3csc(-c4ccccc4)n3)c2)ccc1Cl` [Example 24, 4-Chloro-3′-(2-phenylthiazol-4-yl)biphenyl-3-carboxylic Acid]: the EC50 is 0.57 µM on rat mGlu2 receptor (setting [1]), 0.8 µM at rat mGlu2 receptor (setting [3]) and 0.79 µM on rat mGlu3 receptor.

As to `O=C(O)c1cccc(-c2cccc(-c3nc(-c4ccccc4)nn3-c3ccccc3)c2)c1` [Example 66, 3′-(1,3-Diphenyl-1H-1,2,4-triazol-5-yl)-[1,1′-biphenyl]-3-carboxylic Acid], the EC50 at rat mGlu2 receptor (setting [1]), on rat mGlu2 receptor (setting [2]) and on rat mGlu3 receptor was above 10 µM in each case.

For the compound `Cc1cc2c(cc1C(F)(F)F)NC(=O)CC(c1cccc(Oc3ccccn3)c1)N2` (racemic) [Example 165, 7-Methyl-4-(3-(pyridin-2-yloxy)phenyl)-8-(trifluoromethyl)-4,5-dihydro-1H-benzo[b][1,4]diazepin-2(3H)-one], the EC50 on rat mGlu2 receptor (setting [1]) was 4.37 µM; at rat mGlu2 receptor (setting [3]), 1.47 µM; at rat mGlu3 receptor, 3.47 µM.

As for `O=C(O)c1ccc(-c2ccc(-c3nc(-c4ccc(C(F)(F)F)nc4)cc(C(F)(F)F)n3)cc2)cc1` [Example 81, 4′-(4-(Trifluoromethyl)-6-(6-(trifluoromethyl)pyridin-3-yl)pyrimidin-2-yl)biphenyl-4-carboxylic Acid], the results for the EC50 at rat mGlu2 receptor (setting [1]), on rat mGlu2 receptor (setting [2]) and at rat mGlu3 receptor were 3.78 µM, 0.44 µM and 2.13 µM, respectively.

In the case of `O=C(O)c1cccc(-c2cccc(-c3nc(-c4ccoc4)cc(C(F)(F)F)n3)c2)c1` [Example 115, 3′-(4-(Furan-3-yl)-6-(trifluoromethyl)pyrimidin-2-yl)biphenyl-3-carboxylic acid], the EC50 at rat mGlu2 receptor (setting [1]) amounted to 0.28 µM; at rat mGlu2 receptor (setting [2]), 0.12 µM; on rat mGlu3 receptor, 0.96 µM.

With `O=C1CC(c2ccnc(Cl)c2)=Nc2ccc(-c3cc(F)cc(F)c3)cc2N1` [Example 190, 4-(2-Chloropyridin-4-yl)-8-(3,5-difluorophenyl)-1,3-dihydro-2H-benzo[b][1,4]diazepin-2-one], the EC50 at rat mGlu2 receptor (setting [1]) and on rat mGlu3 receptor was above 10 µM in each case.

`O=C(O)c1cc(F)cc(-c2ccc(-c3nc(-c4ccc(C(F)(F)F)nc4)cc(C(F)(F)F)n3)cc2)c1` [Example 84, 5-Fluoro-4′-(4-(trifluoromethyl)-6-(6-(trifluoromethyl)pyridin-3-yl)pyrimidin-2-yl)biphenyl-3-carboxylic Acid]: the figures for the EC50 on rat mGlu2 receptor (setting [1]) and at rat mGlu3 receptor were 2.79 µM and 4.91 µM, respectively.
